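Each compound was tested at five concentrations against cells in 96-well plates for 48 hours. GI50: concentration for 50% inhibition of growth. TGI marks complete inhibition of growth.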
Tests used:
Assay in all cases: growth of human tumour cells (NCI), 48 h
HCT-15 colon = system: HCT-15 colon
K-562 leukemia = system: K-562 leukemia
MCF7 breast = system: MCF7 breast
MOLT-4 leukemia = system: MOLT-4 leukemia
OVCAR-3 ovarian = system: OVCAR-3 ovarian
OVCAR-4 ovarian = system: OVCAR-4 ovarian
SK-MEL-2 melanoma = system: SK-MEL-2 melanoma
TK-10 renal = system: TK-10 renal
UACC-62 melanoma = system: UACC-62 melanoma
UACC-257 melanoma = system: UACC-257 melanoma

With `CN1CCN(Cn2nc(-c3cc(F)c(Cl)cc3Cl)oc2=S)CC1` the GI50 (HCT-15 colon) was 39.7 µM, the TGI (HCT-15 colon) was greater than 100 µM and the GI50 (K-562 leukemia) was 41.4 µM. The TGI (K-562 leukemia) was greater than 100 µM, the GI50 (MCF7 breast) was 30.2 µM and the TGI (MCF7 breast) was greater than 100 µM. It also gave a GI50 (MOLT-4 leukemia) of 30.5 µM, a TGI (MOLT-4 leukemia) of 70.9 µM and a GI50 (OVCAR-3 ovarian) of 37.4 µM. For the same compound, the TGI (OVCAR-3 ovarian) was greater than 100 µM, the GI50 (OVCAR-4 ovarian) was 30.9 µM and the TGI (OVCAR-4 ovarian) was greater than 100 µM. The GI50 (SK-MEL-2 melanoma) was greater than 100 µM, the TGI (SK-MEL-2 melanoma) was greater than 100 µM and the GI50 (TK-10 renal) was 39.3 µM. The TGI (TK-10 renal) was greater than 100 µM, the GI50 (UACC-62 melanoma) was 21.2 µM and the TGI (UACC-62 melanoma) was 55.2 µM.
`COc1cccc2c1C(=O)c1c(O)c3c(c(O)c1C2=O)CC(O)(C(C)=O)CC3O` (configuration not stated) showed a TGI (HCT-15 colon) of 39.8 µM, a TGI (K-562 leukemia) of 39.3 µM and a TGI (MCF7 breast) of 16.2 µM. The TGI (MOLT-4 leukemia) was 11.3 µM, the TGI (OVCAR-3 ovarian) was 23.8 µM and the TGI (OVCAR-4 ovarian) was 19.6 µM. The TGI (SK-MEL-2 melanoma) was 16.9 µM, the TGI (UACC-257 melanoma) was 32.7 µM and the TGI (UACC-62 melanoma) was 14.4 µM.
With `O=c1[nH]c(-c2ccc(Cl)cc2)cc2ccsc12` the TGI (HCT-15 colon) was greater than 100 µM, the TGI (K-562 leukemia) was greater than 100 µM and the TGI (MCF7 breast) was greater than 100 µM. It also gave a TGI (MOLT-4 leukemia) greater than 100 µM, a TGI (OVCAR-3 ovarian) of 4.26 µM and a TGI (OVCAR-4 ovarian) greater than 100 µM. It also gave a TGI (SK-MEL-2 melanoma) greater than 100 µM, a TGI (TK-10 renal) of 8.22 µM and a TGI (UACC-257 melanoma) of 7.87 µM. For the same compound, the TGI (UACC-62 melanoma) was greater than 100 µM.

From PubChem BioAssay (NCI)
